Assays:
Experiment in all cases: combination Emax (second highest fraction inhibited in the dose matrix, 72 h); higher = more inhibition; extreme values may be limits of the assay
[1] = test system: MN-60 (B-Lymphoblastic Leukemia)
In short: (§1)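 Bliss excess equals the observed combination effect minus the expected value EA + EB − EA·EB, where EA and EB are the effects of each agent alone. Combination Emax is the second-highest inhibition within the matrix. Inhibition was scaled from CellTiter-Glo 2.0 luminescence, with 0 set by vehicle wells and 1 by blank wells, after 72 hours of two-drug dosing of cells plated in 1536-well plates.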

[2] = test system: NCI-H520 (Squamous Cell Lung Carcinoma)
In short: as §1

M059J (Glioblastoma) = test system: M059J (Glioblastoma)
In short: as §1

[3] = test system: ST486 (Burkitt's Lymphoma)
In short: as §1

[4] = test system: VMRC-RCZ (Kidney Carcinoma)
In short: as §1

[5] = test system: KP-3 (Pancreatic Carcinoma)
In short: as §1

[6] = test system: 8505C (Thyroid Gland Carcinoma)
In short: as §1

NCI-H2731 (Mesothelioma) = test system: NCI-H2731 (Mesothelioma)
In short: as §1

[7] = test system: SU-DHL-5 (B-Cell Non-Hodgkin's Lymphoma)
In short: as §1

[8] = test system: JHH-4 (Hepatocellular Carcinoma)
In short: as §1

[9] = test system: KYSE-270 (Esophageal Squamous Cell Carcinoma)
In short: as §1

[10] = test system: SK-GT-4 (Esophageal Adenocarcinoma)
In short: as §1

RD (Rhabdomyosarcoma) = test system: RD (Rhabdomyosarcoma)
In short: as §1

[11] = test system: NCI-H3122 (Lung Adenocarcinoma)
In short: as §1

[12] = test system: KMS-12-BM (Plasma Cell Myeloma)
In short: as §1

[13] = test system: IM-95 (Gastric Carcinoma)
In short: as §1

[14] = test system: KY821 (Acute Myeloid Leukemia)
In short: as §1

[15] = test system: NCI-H526 (Small Cell Lung Carcinoma)
In short: as §1

[16] = test system: COR-L279 (Small Cell Lung Carcinoma)
In short: as §1

[17] = test system: SK-GT-2 (Gastric Carcinoma)
In short: as §1

| SMILES | combination Emax [1] | combination Emax [2] | combination Emax (M059J (Glioblastoma)) | combination Emax [3] | combination Emax [4] | combination Emax [5] | combination Emax [6] | combination Emax (NCI-H2731 (Mesothelioma)) | combination Emax [7] | combination Emax [8] | combination Emax [9] | combination Emax [10] | combination Emax (RD (Rhabdomyosarcoma)) | combination Emax [11] | combination Emax [12] | combination Emax [13] | combination Emax [14] | combination Emax [15] | combination Emax [16] | combination Emax [17] |
| --- | --- | --- | --- | --- | --- | --- | --- | --- | --- | --- | --- | --- | --- | --- | --- | --- | --- | --- | --- | --- |
| Cc1cc2ncnn2cc1Nc1ncc2c(n1)n(C1CCOCC1)c(=O)n2C [AZD7648] + CCN(CCO)CCCOc1ccc2c(Nc3cc(CC(=O)Nc4cccc(F)c4)[nH]n3)ncnc2c1 [AZD2811] (first compound max 10 µM, 7x7, partner max 1 µM) | 0.185 | 0.704 | 0.457 | 0.831 | 0.276 | 0.237 | 0.212 | 0.409 | 0.993 | 0.245 | 0.183 | 0.389 | 0.214 | 0.548 | 0.574 | 0.424 | 0.495 | 0.356 | 0.757 | 0.198 |
| CN(CCO)CC[C@H](CSc1ccccc1)Nc1ccc(S(=O)(=O)NC(=O)c2ccc(N3CCC([C@@H](O)c4ccccc4-c4ccc(Cl)cc4)CC3)cc2)cc1S(=O)(=O)C(F)(F)F [AZD4320] + C[C@@H](Nc1cc(F)cc(F)c1)c1cc(C(=O)N(C)C)cc2c(=O)cc(N3CCOCC3)oc12 [AZD8186] (first compound max 1 µM, 7x7, partner max 3 µM) | 0.226 | 0.688 | 0.306 | 0.887 | 0.397 | 0.178 | 0.502 | 0.552 | 0.99 | 0.34 | 0.357 | 0.415 | 0.887 | 0.365 | 1 | 0.855 | 1 | 0.973 | 1 | 0.237 |
| CC1(C)CCC(CN2CCN(c3ccc(C(=O)NS(=O)(=O)c4ccc(NCC5CCOCC5)c([N+](=O)[O-])c4)c(Oc4cnc5[nH]ccc5c4)c3)CC2)=C(c2ccc(Cl)cc2)C1 [Venetoclax] + C[C@@H](Nc1cc(F)cc(F)c1)c1cc(C(=O)N(C)C)cc2c(=O)cc(N3CCOCC3)oc12 [AZD8186] (first compound max 1 µM, 7x7, partner max 3 µM) | 0.418 | 0.488 | 0.306 | 0.695 | 0.201 | 0.0603 | 0.109 | 0.107 | 0.984 | 0.211 | 0.653 | 0.229 | 0.265 | 0.134 | 1 | 0.208 | 1 | 0.799 | 0.394 | 0.0218 |
| CS(=O)(=O)CCNCc1ccc(-c2ccc3ncnc(Nc4ccc(OCc5cccc(F)c5)c(Cl)c4)c3c2)o1 [Lapatinib] + C[C@@H](Oc1cc(-c2cnn(C3CCNCC3)c2)cnc1N)c1c(Cl)ccc(F)c1Cl [Crizotinib] (first compound max 10 µM, 7x7, partner max 10 µM) | 0.834 | 0.659 | 0.801 | 0.942 | 0.365 | 0.557 | 0.721 | 0.921 | 1 | 0.546 | 0.967 | 0.82 | 0.891 | 0.938 | 0.965 | 0.854 | 0.986 | 0.732 | 0.953 | 0.995 |
| COc1cc2c(cc1OCCCCCOc1cc3c(cc1OC)C(=O)N1C=C(C)C[C@H]1C=N3)N=C[C@@H]1CC(C)=CN1C2=O [SG3199] + O=C(c1cc(Cc2n[nH]c(=O)c3ccccc23)ccc1F)N1CCN(C(=O)C2CC2)CC1 [Olaparib] (first compound max 0.001 µM, 7x7, partner max 10 µM) | 0.079 | 0.118 | 0.214 | 0.103 | 0.0887 | 0.027 | 0.202 | 0.0512 | 0.958 | 0.149 | 0.228 | 0.104 | 0.0922 | 0.172 | 0.136 | 0.0954 | 0.101 | 0.503 | 0.878 | 0.12 |
| COc1cc2ncnc(Nc3ccc(F)c(Cl)c3)c2cc1OCCCN1CCOCC1 [Gefitinib] + CC(C)n1c(=O)n(C)c2cnc3cc(F)c(-c4ccc(OCCCN5CCCCC5)nc4)cc3c21 [AZD1390] (first compound max 10 µM, 7x7, partner max 0.3 µM) | 0.0314 | 0.15 | 0.178 | 0.35 | 0.11 | 0.0907 | 0.0956 | 0.0304 | 0.393 | 0.234 | 0.435 | 0.373 | 0.0787 | 0.0961 | 0.308 | 0.171 | 0.416 | 0.12 | 0.395 | 0.768 |
| Cc1cc2ncnn2cc1Nc1ncc2c(n1)n(C1CCOCC1)c(=O)n2C [AZD7648] + C[C@@H]1COCCN1C2=NC(=NC(=C2)C3(CC3)[S@](=N)(=O)C)C4=C5C=CNC5=NC=C4 [AZD6738] (first compound max 10 µM, 7x7, partner max 10 µM) | 0.427 | 0.771 | 0.514 | 0.893 | 0.388 | 0.296 | 0.361 | 0.381 | 1 | 0.276 | 0.717 | 0.576 | 0.246 | 0.751 | 0.926 | 0.317 | 0.92 | 0.637 | 0.677 | 0.216 |
| CC1(C)CCC(CN2CCN(c3ccc(C(=O)NS(=O)(=O)c4ccc(NCC5CCOCC5)c([N+](=O)[O-])c4)c(Oc4cnc5[nH]ccc5c4)c3)CC2)=C(c2ccc(Cl)cc2)C1 [Venetoclax] + C[C@@H]1COCCN1C2=NC(=NC(=C2)C3(CC3)[S@](=N)(=O)C)C4=C5C=CNC5=NC=C4 [AZD6738] (first compound max 1 µM, 7x7, partner max 10 µM) | 0.456 | 0.654 | 0.526 | 0.861 | 0.434 | 0.323 | 0.482 | 0.307 | 1 | 0.254 | 0.869 | 0.589 | 0.372 | 0.652 | 1 | 0.169 | 1 | 0.889 | 0.833 | 0.331 |
| COc1cccc(OCCCN)c1-c1cc(Nc2cnc(C#N)cn2)n[nH]1 [Prexasertib] + Cc1cc2ncnn2cc1Nc1ncc2c(n1)n(C1CCOCC1)c(=O)n2C [AZD7648] (first compound max 1 µM, 7x7, partner max 10 µM) | 0.555 | 0.881 | 0.693 | 0.996 | 0.362 | 0.465 | 0.483 | 0.385 | 1 | 0.62 | 1 | 0.735 | 0.571 | 0.664 | 1 | 0.36 | 1 | 0.92 | 0.803 | 0.833 |
| CC(=O)c1c(C)c2cnc(Nc3ccc(N4CCNCC4)cn3)nc2n(C2CCCC2)c1=O [Palbociclib] + Cc1c2c(nn1C)CSCc1cc(n(C)n1)CSc1cc(c3ccccc3c1)OCCCc1c(C(=O)O)n(C)c3c-2c(Cl)ccc13 [AZD5991] (first compound max 10 µM, 7x7, partner max 1 µM) | 0.443 | 0.638 | 0.191 | 0.832 | 0.194 | 0.221 | 0.245 | 0.214 | 1 | 0.397 | 0.568 | 0.305 | 0.317 | 0.605 | 1 | 0.33 | 1 | 0.391 | 0.627 | 0.168 |
| COc1cccc(OCCCN)c1-c1cc(Nc2cnc(C#N)cn2)n[nH]1 [Prexasertib] + C[C@@H]1COCCN1C2=NC(=NC(=C2)C3(CC3)[S@](=N)(=O)C)C4=C5C=CNC5=NC=C4 [AZD6738] (first compound max 1 µM, 7x7, partner max 10 µM) | 0.562 | 0.775 | 0.686 | 0.98 | 0.398 | 0.456 | 0.551 | 0.395 | 1 | 0.501 | 0.999 | 0.713 | 0.539 | 0.794 | 1 | 0.267 | 1 | 0.92 | 0.835 | 0.81 |
| Cc1cc2ncnn2cc1Nc1ncc2c(n1)n(C1CCOCC1)c(=O)n2C [AZD7648] + CN(C)CCCOc1ccc(-c2ccc3ncc4c(c3c2)n(C2CCOCC2)c(=O)n4C)cn1 [AZD0156] (first compound max 10 µM, 7x7, partner max 1 µM) | 0.201 | 0.614 | 0.321 | 0.274 | 0.256 | 0.159 | 0.189 | 0.274 | 0.66 | 0.247 | 0.143 | 0.315 | 0.195 | 0.423 | 0.49 | 0.303 | 0.417 | 0.15 | 0.4 | 0.159 |
| Cn1cnc2c(F)c(Nc3ccc(Br)cc3Cl)c(C(=O)NOCCO)cc21 [Selumetinib] + CC(C)n1c(=O)n(C)c2cnc3cc(F)c(-c4ccc(OCCCN5CCCCC5)nc4)cc3c21 [AZD1390] (first compound max 10 µM, 7x7, partner max 0.3 µM) | 0.052 | 0.147 | 0.107 | 0.455 | 0.101 | 0.15 | 0.584 | 0.0731 | 0.299 | 0.605 | 0.25 | 0.516 | 0.24 | 0.552 | 0.295 | 0.222 | 0.66 | 0.0826 | 0.194 | 0.113 |

Source: the supplement of paper PMC11061612
